Where a SMILES comes first, the peptide text is derived from it. [ ]: non-standard residue; d: D form.
What was measured:
Format in all cases: cell-based
[1] = test system: C. quillermondiae; assay: MIC, clinical yeast strains; settings: clinical yeast strain 1; D-form peptide; concentrations tested 0.125 to 128 μg/ml
Method in brief: (§1)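 Clinical isolates were exposed to peptide concentrations from 0.125 up to 128 μg/ml at a starting density of 5.0×10^5 cfu/ml. Antifungal testing took place in potato dextrose broth at 37° C for 20 to 24 hours, and the end point was the absence of visible growth.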

[2] = test system: Candida albicans; assay: MIC, clinical yeast strains; settings: D-form peptide, concentrations tested 0.125 to 128 μg/ml
Method in brief: as §1

[3] = test system: C. parapsilosis; assay: MIC, clinical yeast strains; settings: D-form peptide, concentrations tested 0.125 to 128 μg/ml
Method in brief: as §1

[4] = test system: C. glabrata; assay: MIC, clinical yeast strains; settings: D-form peptide, concentrations tested 0.125 to 128 μg/ml
Method in brief: as §1

[5] = test system: clinical strains of Acinetobacter baumannii; assay: MIC, microdilution, clinical strains; design: unit: μg/ml; settings: 0.02% BSA, 0.2% acetic acid
Experimental: Minimum inhibition concetrations (MICs) were determined against Escherichia coli (ATCC 25922), Staphylococcus aureus (ATCC 25923), Klebsiella pneumoniae (ATCC 10031) and Pseudomonas aeruginosa (ATCC 27853). Also clinical strains of E. coli, K. pneumoniae, E. cloacae, P. aeruginosa, Serratia marcescens, Proteus mirabilis, S. pneumoniae, Acinetobacter baumannii, A. johnsonii and S. aureus were used for MICs assays. Additionally, clinical strains of yeast including Candida albicans, C. glabrata, C. parapsilosis and C. quillermondiae were used. The susceptibility of these microorganisms to Chain peptides were determined using micro broth dilution assay. Colonies of the respective microorganism from Muller Hinton (MH) agar plates incubated overnight were suspended in MH broth media and final concentration of microorganism was adjusted to 5.0×10^5 cfu/ml. An aliquot of 10 μl of each Chain peptide, or gentamicin, tetracycline as reference antibiotics were added in differing concentrations along with 90 μl of bacterial suspension to 96 well polypropylene plates and incubated at 37° C. for 20 to 24 hours. Concentrations of Chain peptides and reference antibiotics ranged from 0.125 to 128 μg/ml and the MICs were recorded as the lowest concentration with no visual growth of bacteria. Similarly, antifungal MICs were tested in Potato dextrose broth.
Clinical strains of yeasts including Candida albicans, C. glabrata, C. parapsilosis and C. quillermondiae were also tested with the 12 Chain peptides. The minimum inhibitory concentration (MICs) varied between these peptides and are presented in Tables 4a, 4b, 4c and 5a, 5b, 5c. Peptides Chain 105, 201 and 308 are broad spectrum antimicrobials with MICs between 0.5-32 μg/ml against all the bacteria and yeasts tested, except Serratia marcescens and Proteus mirabilis, against which the MICs were between 64-128 μg/ml. Peptide Chain 306 has narrow spectrum activity against E. coli at 1 μg/ml and for the rest of the bacterial strains at >32 μg/ml (FIG. 10c).

[6] = test system: clinical strains of P. aeruginosa; assay: MIC, microdilution, clinical strains; settings: 0.02% BSA, 0.2% acetic acid
Method in brief: (§2)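 Broth microdilution with inocula adjusted to 5.0×10^5 cfu/ml; peptides tested at 0.125 to 128 μg/ml and incubated at 37° C for 20 to 24 hours. Bacteria were grown in Mueller Hinton broth, yeasts in potato dextrose broth. MIC was the lowest concentration showing no visible growth.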

[7] = test system: clinical strains of E. cloacae; assay: MIC, microdilution, clinical strains; settings: 0.02% BSA, 0.2% acetic acid
Method in brief: as §2

[8] = test system: clinical strains of Serratia marcescens; assay: MIC, microdilution, clinical strains; settings: 0.02% BSA, 0.2% acetic acid
Method in brief: as §2

[9] = test system: clinical strains of K. pneumoniae; assay: MIC, microdilution, clinical strains; settings: 0.02% BSA, 0.2% acetic acid
Method in brief: as §2

[10] = test system: clinical strains of S. pneumoniae; assay: MIC, microdilution, clinical strains; settings: 0.02% BSA, 0.2% acetic acid
Method in brief: as §2

[11] = test system: clinical strains of Proteus mirabilis; assay: MIC, microdilution, clinical strains; settings: 0.02% BSA, 0.2% acetic acid
Method in brief: as §2

[12] = test system: clinical strains of E. coli; assay: MIC, microdilution, clinical strains; settings: microdilution, Muller Hinton broth-cation adjusted, 0.02% BSA, 0.2% acetic acid
Method in brief: as §2

[13] = test system: clinical strains of S. aureus; assay: MIC, microdilution, clinical strains; settings: 0.02% BSA, 0.2% acetic acid
Method in brief: as §2

CC[C@@H](C)[C@@H](NC(=O)[C@@H](CC(C)C)NC(=O)[C@@H](CCCNC(=N)N)NC(=O)[C@H](N)CCCNC(=N)N)C(=O)N[C@H](Cc1c[nH]c2ccccc12)C(=O)N[C@H](CCCNC(=N)N)C(=O)N[C@H](CCCNC(=N)N)C(=O)N[C@H](Cc1ccccc1)C(=O)N[C@H](CCCCN)C(=O)N[C@H](Cc1c[nH]c2ccccc12)C(=O)N[C@H](CC(C)C)C(=O)N[C@H](CCCNC(=N)N)C(=O)O [Chain204D] (H-[dR][dR][dL][dI][dW][dR][dR][dF][dK][dW][dL][dR]-OH)
4: Minimum inhibitory concentration, C. quillermondiae strain 1 [1] | Minimum inhibitory concentration, C. parapsilosis strain 1 ([3]; clinical yeast strain 1) | Minimum inhibitory concentration, C. parapsilosis strain 2 ([3]; clinical yeast strain 2) | Minimum inhibitory concentration, C. glabrata strain 1 ([4]; clinical yeast strain 1) | Minimum inhibitory concentration ([5]; Acinetobacter baumannii strain 1, Muller Hinton broth-cation adjusted) | Minimum inhibitory concentration ([5]; Acinetobacter baumannii strain 2, Muller Hinton broth-cation adjusted) | Minimum inhibitory concentration ([5]; Acinetobacter baumannii strain 3, Muller Hinton broth-cation adjusted) | Minimum inhibitory concentration ([5]; Acinetobacter baumannii strain 4, Muller Hinton broth-cation adjusted) | Minimum inhibitory concentration ([5]; Acinetobacter baumannii strain 5, Muller Hinton broth-cation adjusted) | Minimum inhibitory concentration ([6]; Pseudomonas aeruginosa strain 1, Muller Hinton broth-cation adjusted) | Minimum inhibitory concentration ([6]; Pseudomonas aeruginosa strain 5, Muller Hinton broth-cation adjusted) | Minimum inhibitory concentration ([7]; Enterobacter cloacae strain 1, Muller Hinton broth-cation adjusted) | Minimum inhibitory concentration ([7]; Enterobacter cloacae strain 3, Muller Hinton broth-cation adjusted) | Minimum inhibitory concentration ([9]; Klebsiella pneumoniae strain 2, Muller Hinton broth-cation adjusted) | Minimum inhibitory concentration ([9]; Klebsiella pneumoniae strain 4, Muller Hinton broth-cation adjusted) | Minimum inhibitory concentration ([10]; Streptococcus pneumoniae strain 1, Muller Hinton broth-cation adjusted) | Minimum inhibitory concentration ([10]; Streptococcus pneumoniae strain 2, Muller Hinton broth-cation adjusted) | Minimum inhibitory concentration ([10]; Streptococcus pneumoniae strain 3, Muller Hinton broth-cation adjusted) | Minimum inhibitory concentration ([10]; Streptococcus pneumoniae strain 4, Muller Hinton broth-cation adjusted) | Minimum inhibitory concentration ([10]; Streptococcus pneumoniae strain 5, Muller Hinton broth-cation adjusted)
2: Minimum inhibitory concentration ([7]; Enterobacter cloacae strain 5, Muller Hinton broth-cation adjusted) | Minimum inhibitory concentration ([9]; Klebsiella pneumoniae strain 5, Muller Hinton broth-cation adjusted) | Minimum inhibitory concentration ([13]; Staphylococcus aureus strain 2, Muller Hinton broth-cation adjusted) | Minimum inhibitory concentration ([13]; Staphylococcus aureus strain 3, Muller Hinton broth-cation adjusted)
32: Minimum inhibitory concentration, C. glabrata strain 3 ([4]; clinical yeast strain 3) | Minimum inhibitory concentration, C. glabrata strain 4 ([4]; clinical yeast strain 4) | Minimum inhibitory concentration ([11]; Proteus mirabilis strain 2, Muller Hinton broth-cation adjusted)
8: Minimum inhibitory concentration, Candida albicans strain 1 ([2]; clinical yeast strain 1) | Minimum inhibitory concentration, Candida albicans strain 2 ([2]; clinical yeast strain 2) | Minimum inhibitory concentration, Candida albicans strain 3 ([2]; clinical yeast strain 3) | Minimum inhibitory concentration, Candida albicans strain 4 ([2]; clinical yeast strain 4) | Minimum inhibitory concentration, Candida albicans strain 5 ([2]; clinical yeast strain 5) | Minimum inhibitory concentration, C. parapsilosis strain 3 ([3]; clinical yeast strain 3) | Minimum inhibitory concentration, C. parapsilosis strain 4 ([3]; clinical yeast strain 4) | Minimum inhibitory concentration, C. glabrata strain 2 ([4]; clinical yeast strain 2) | Minimum inhibitory concentration ([6]; Pseudomonas aeruginosa strain 3, Muller Hinton broth-cation adjusted) | Minimum inhibitory concentration ([6]; Pseudomonas aeruginosa strain 4, Muller Hinton broth-cation adjusted) | Minimum inhibitory concentration ([7]; Enterobacter cloacae strain 2, Muller Hinton broth-cation adjusted) | Minimum inhibitory concentration ([7]; Enterobacter cloacae strain 4, Muller Hinton broth-cation adjusted) | Minimum inhibitory concentration ([9]; Klebsiella pneumoniae strain 1, Muller Hinton broth-cation adjusted) | Minimum inhibitory concentration ([12]; Escherichia coli strain 1)
1: Minimum inhibitory concentration ([12]; Escherichia coli strain 2) | Minimum inhibitory concentration ([12]; Escherichia coli strain 3) | Minimum inhibitory concentration ([12]; Escherichia coli strain 4) | Minimum inhibitory concentration ([12]; Escherichia coli strain 5) | Minimum inhibitory concentration ([13]; Staphylococcus aureus strain 1, Muller Hinton broth-cation adjusted) | Minimum inhibitory concentration ([13]; Staphylococcus aureus strain 4, Muller Hinton broth-cation adjusted) | Minimum inhibitory concentration ([13]; Staphylococcus aureus strain 5, Muller Hinton broth-cation adjusted)
64: Minimum inhibitory concentration ([11]; Proteus mirabilis strain 3, Muller Hinton broth-cation adjusted)
128: Minimum inhibitory concentration ([8]; Serratia marcescens strain 3, Muller Hinton broth-cation adjusted)
>128: Minimum inhibitory concentration ([8]; Serratia marcescens strain 1, Muller Hinton broth-cation adjusted) | Minimum inhibitory concentration ([8]; Serratia marcescens strain 2, Muller Hinton broth-cation adjusted) | Minimum inhibitory concentration ([8]; Serratia marcescens strain 4, Muller Hinton broth-cation adjusted) | Minimum inhibitory concentration ([8]; Serratia marcescens strain 5, Muller Hinton broth-cation adjusted) | Minimum inhibitory concentration ([11]; Proteus mirabilis strain 1, Muller Hinton broth-cation adjusted) | Minimum inhibitory concentration ([11]; Proteus mirabilis strain 4, Muller Hinton broth-cation adjusted) | Minimum inhibitory concentration ([11]; Proteus mirabilis strain 5, Muller Hinton broth-cation adjusted)
16: Minimum inhibitory concentration ([6]; Pseudomonas aeruginosa strain 2, Muller Hinton broth-cation adjusted) | Minimum inhibitory concentration ([9]; Klebsiella pneumoniae strain 3, Muller Hinton broth-cation adjusted)

— patent publication US10457710B2, “Antimicrobial peptides, their variants and uses” (priority 2015, dated 2019)
